This is an account of results in BindingDB's records for doi:10.1002/cbic.201000487 (Eberhard Karls University of Tuebingen, 2010).

For experiment [1], the target named is Mitogen-activated protein kinase 10 (Homo sapiens, UniProt P53779). Briefly: Kinase Assay. Particulars: 37 °C. The procedure: (§1) The p38alpha reaction was carried out by using kinase (12ng per well), ATP (100uM) and incubated for 60 min at 37 C. For the JNK3 assay, kinase (10ng per well), ATP (1uM) and 45 min of incubation time at 37 C were used.
For experiment [2], the target named is Mitogen-activated protein kinase 14 (Homo sapiens, UniProt Q16539). Nature of the experiment: Kinase Assay. Conditions: 37 °C. The procedure: as §1
Sequence of Mitogen-activated protein kinase 14 (Q16539 whole entry): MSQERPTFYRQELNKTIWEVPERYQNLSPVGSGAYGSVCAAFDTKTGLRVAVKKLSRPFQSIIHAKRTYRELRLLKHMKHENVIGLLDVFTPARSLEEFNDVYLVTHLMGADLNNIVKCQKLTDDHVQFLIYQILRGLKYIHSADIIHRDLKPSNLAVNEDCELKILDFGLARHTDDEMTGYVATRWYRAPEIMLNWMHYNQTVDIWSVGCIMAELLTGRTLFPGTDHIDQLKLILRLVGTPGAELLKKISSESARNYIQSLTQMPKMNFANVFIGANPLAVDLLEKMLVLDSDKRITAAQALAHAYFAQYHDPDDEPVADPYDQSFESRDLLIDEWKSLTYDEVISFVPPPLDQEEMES

Sequence of Mitogen-activated protein kinase 10 (P53779 whole entry): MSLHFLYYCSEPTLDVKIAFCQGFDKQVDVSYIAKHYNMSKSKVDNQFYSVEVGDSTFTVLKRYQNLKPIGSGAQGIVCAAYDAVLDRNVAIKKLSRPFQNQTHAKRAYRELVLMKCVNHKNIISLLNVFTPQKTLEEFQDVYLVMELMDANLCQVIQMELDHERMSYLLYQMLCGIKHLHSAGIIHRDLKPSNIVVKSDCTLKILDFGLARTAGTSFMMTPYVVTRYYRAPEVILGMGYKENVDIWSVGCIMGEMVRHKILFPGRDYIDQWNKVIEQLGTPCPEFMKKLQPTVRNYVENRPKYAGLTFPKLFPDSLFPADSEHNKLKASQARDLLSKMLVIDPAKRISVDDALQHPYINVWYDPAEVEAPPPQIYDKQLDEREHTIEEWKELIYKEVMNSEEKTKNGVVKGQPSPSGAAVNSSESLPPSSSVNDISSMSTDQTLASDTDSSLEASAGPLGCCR

Take `O=c1c(O)c(-c2cc(O)c(O)c(O)c2)oc2cc(O)cc(O)c12`: the IC50 in experiment [1] came to 2.24 µM; in experiment [2], 1.64 µM.
For `COc1cc(-c2oc3cc(O)cc(O)c3c(=O)c2O)ccc1O`, the IC50 in experiment [1] turned out to be 6.3 µM; in experiment [2], 20.1 µM.
`COc1c(O)cc2oc(-c3ccc(O)c(O)c3)cc(=O)c2c1O`: the results for the IC50 in experiment [1] and in experiment [2] were 15.9 µM and 22.2 µM, respectively.
Regarding `Oc1cc(O)c2c(c1)O[C@H](c1ccc(O)c(O)c1)[C@H](O)C2`, the IC50 stood at 89.5 µM in experiment [1] and 67.6 µM in experiment [2].
For `O=c1cc(-c2ccc(O)c(O)c2)oc2cc(O[C@@H]3O[C@H](CO)[C@@H](O)[C@H](O)[C@H]3O)cc(O)c12` the same measures were 2.45 µM and 87.1 µM.
With `O=c1c(O)c(-c2ccc(O)cc2)oc2cc(O)cc(O)c12`, the IC50 worked out at 19.1 µM in experiment [1] and 18.4 µM in experiment [2].
The corresponding values for `C[C@@H]1O[C@@H](Oc2c(-c3ccc(O)c(O)c3)oc3cc(O)cc(=O)c-3c2O)[C@H](O)[C@H](O)[C@H]1O` are 20.2 µM and 28.1 µM.
For `O=c1c(O)c(-c2ccc(O)cc2O)oc2cc(O)cc(O)c12` [2-(2,4-dihydroxyphenyl)-3,5,7-trihydroxychromen-4-one] the same measures were 26.8 µM and 11.4 µM.
Regarding `O=c1c(O)c(-c2ccc(O)c(O)c2)oc2cc(O)cc(O)c12` [2-(3,4-dihydroxyphenyl)-3,5,7-trihydroxy-chromone;hydrate], the IC50 in experiment [1] turned out to be 2.31 µM; in experiment [2] it was 3.45 µM.
On to `O=c1c(O)c(-c2ccc(O)c(O)c2)oc2cc(O)ccc12` [2-(3,4-dihydroxyphenyl)-3,7-dihydroxy-chromen-4-one], for which the IC50 in experiment [1] was found to be 2.6 µM; in experiment [2], 2.7 µM.
Consider `O=c1cc(-c2ccc(O)c(O)c2)oc2cc(O)cc(O)c12` [2-(3,4-dihydroxyphenyl)-5,7-dihydroxy-4H-chromen-4-one], for which the IC50 in experiment [1] is 2.3 µM; in experiment [2], 18 µM.
With `COc1cc(O)c2c(=O)c(OC)c(-c3ccc(O)c(O)c3)oc2c1` [3',4',5-trihydroxy-3,7-dimethoxyflavone], the IC50 was 7.7 µM in experiment [1] and 12.3 µM in experiment [2].
With `C[C@@H]1O[C@@H](OC[C@H]2O[C@@H](Oc3c(-c4ccc(O)c(O)c4)oc4cc(O)cc(O)c4c3=O)[C@H](O)[C@@H](O)[C@@H]2O)[C@H](O)[C@H](O)[C@H]1O` [3-Rhamnoglucosylquercetin], half-maximal inhibition in experiment [2] (IC50) was put at 65.9 µM.
Regarding `COc1ccc(-c2cc(=O)c3c(O)c(OC)c(O)cc3o2)cc1` [4,5-Dihydroxy-6-methoxy-2-(4-methoxy-phenyl)-chromen-7-one], the IC50 in experiment [2] came to 32.4 µM.
`COc1c(O)cc2oc(-c3ccc(O)cc3)cc(=O)c2c1O` [5,7-dihydroxy-2-(4-hydroxyphenyl)-6-methoxy-4H-chromen-4-one]: the results for the half-maximal inhibitory concentration (IC50) in experiment [1] and in experiment [2] were 34.8 µM and 18.6 µM, respectively.
With `COc1ccc(-c2cc(=O)c3c(O)cc(O)cc3o2)cc1` [5,7-dihydroxy-2-(4-methoxyphenyl)-4H-chromen-4-one], the figures for the IC50 in experiment [1] and in experiment [2] were 5.78 µM and 50 µM, respectively.
With `O=c1cc(-c2ccccc2)oc2cc(O)cc(O)c12` [5,7-dihydroxy-2-phenyl-4H-chromen-4-one], the half-inhibitory concentration (IC50) in experiment [1] was 11.8 µM; in experiment [2], 39.9 µM.
In turn, `COc1ccc(-c2cc(=O)c3c(O)cc(OC)cc3o2)cc1` [5-hydroxy-7-methoxy-2-(4-methoxyphenyl)-4H-chromen-4-one] came in with an IC50 in experiment [2] of 27.8 µM.
As to `COc1c(O)cc2oc(-c3ccc(O)cc3)c(O)c(=O)c2c1O` [6-methoxy kaempferol], the IC50 in experiment [1] worked out at 22.4 µM; in experiment [2] it was 17.2 µM.
For `COc1ccc([C@@H]2CC(=O)c3c(O)cc(O)cc3O2)cc1O` [(2S)-5,7-dihydroxy-2-(3-hydroxy-4-methoxyphenyl)-3,4-dihydro-2H-1-benzopyran-4-one], in experiment [2], the IC50 turned out to be 54.6 µM.
In the case of `Oc1cc(O)c2c(c1)O[C@H](c1cc(O)c(O)c(O)c1)[C@@H](O)C2` [(+)-gallocatechin], the IC50 is 5.3 µM in experiment [1] and 3.53 µM in experiment [2].
The corresponding values for `COc1cc(-c2cc(=O)c3c(O)c(OC)c(O)cc3o2)ccc1O` [Jaceosidin] are 19.1 µM and 18.9 µM.
Turning to `COc1ccc(-c2oc3cc(O)cc(O)c3c(=O)c2O)cc1` [Kaempferide], the IC50 in experiment [1] was determined as 52.5 µM; in experiment [2], 32.9 µM.
Consider `COc1cc(O)c2c(=O)c(O)c(-c3ccc(OC)c(O)c3)oc2c1` [Kaempferol-7,4'-dimethylether], for which the figures for the IC50 in experiment [1] and in experiment [2] were 55.4 µM and 3.98 µM, respectively.
For `O=c1cc(-c2ccc(O)c(O)c2)oc2c([C@@H]3O[C@H](CO)[C@@H](O)[C@H](O)[C@H]3O)c(O)cc(O)c12` [Luteolin 8-C-glucoside], the results for the 50% inhibitory concentration (IC50) in experiment [1] and in experiment [2] were 38.2 µM and 55.7 µM, respectively.
The molecule `COc1cc(O)c2c(=O)cc(-c3ccc(OC)c(OC)c3)oc2c1` [Luteolin-7,3',4'-trimethylether] gave an IC50 in experiment [2] of 33.2 µM.
Regarding `O=c1cc(-c2ccc(O)cc2)oc2cc(O)cc(O)c12` [Naringenin, 18], the concentration for half-maximal inhibition (IC50) amounted to 2.2 µM in experiment [1] and 14.3 µM in experiment [2].
Consider `COc1ccc(-c2cc(=O)c3c(O)c(OC)c(O)c(OC)c3o2)cc1` [Nevadensin], for which the IC50 in experiment [1] is 16.3 µM; in experiment [2] it was 23.9 µM.
Turning to `COc1c(O)cc2oc(-c3ccc(O)c(O)c3)c(O)c(=O)c2c1O` [Patuletin], the IC50 came out at 60.9 µM in experiment [1] and 16.3 µM in experiment [2].
`O=c1c(-c2ccc(O)cc2)coc2cc(O)cc(O)c12` [Prunetol]: the half-inhibitory concentration (IC50) in experiment [2] turned out to be 61.4 µM.
As to `O=c1cc(O)cc2oc(-c3ccc(O)c(O)c3)c(O[C@@H]3O[C@H](CO)[C@@H](O)[C@H](O)[C@H]3O)c(O)c1-2` [Quercetin 3-O-beta-D-glucoside], the figures for the 50% inhibitory concentration (IC50) in experiment [1] and in experiment [2] were 21.7 µM and 51.3 µM, respectively.
In the case of `COc1cc(O)c2c(=O)cc(-c3ccc(O)c(OC)c3)oc2c1` [Velutin], the 50% inhibitory concentration (IC50) came out at 7.8 µM in experiment [1] and 52.5 µM in experiment [2].

For orientation: IC50 means the midpoint of a concentration-inhibition curve. A higher IC50 goes with weaker potency.
